# Experimental data taken from patent publication US20050244829A1, “Method of screening insulin resistance inproving drug” (priority 2002, published 2005).
# How the values were obtained:
# p68 RNA helicase = test: Expression level of mRNA of p68 RNA helicase during differentiation of 3T3L1 cell into fat cell (real-time PCR); type: cell-based; conditions: 3T3L1 cell in differentiation culture medium; pioglitazone final concentration 1 μM; 24 hours after addition; corrected on G3PDH expression
# Experimental: To a culture plate (60-mm diameter; Asahi Technoglass), 2 ml of the minimum essential culture medium of DMEM (Gibco) supplemented with 10% fetal bovine serum (Sigma) was added and a culture cell 3T3L1 cell was cultured therein to become confluence. Subsequently, the culture medium was replaced with a differentiation culture medium [the minimum essential culture medium DMEM (Gibco) supplemented with insulin (at a final concentration of 10 μg/ml; Sigma), dexamethazone (at a final concentration of […]; Sigma) and 3-isobutyl-1-[…] (at a final concentration of […]; Sigma)], to which pioglitazone (at a final concentration of 1 μM) as an agent for improving insulin resistance was added or was not added. Then, it was examined as to whether or not the expression level of p68 RNA helicase changed between the culture medium with or without adding pioglitazone. 24 hours after pioglitazone addition, the cell was harvested, to extract RNA using an RNA extraction reagent (ISOGEN; Wako Pure Chemical Co., Ltd.) for reverse transcription with a reverse transcription reaction kit (Thermoscript RT-PCR System; Invitrogen). […]
# [1] = system: promoter region of p68 RNA helicase gene; test: Promoter activity of p68 RNA helicase gene, luciferase reporter assay in COS-1 cells; type: cell-based, monkey; conditions: COS-1 cells co-transfected with pGL3-p68-899 bp or pGL3-p68-1184 bp; pioglitazone final concentration 10 μM; 24 hours; corrected by β-galactosidase activity; FIG. 2
# Experimental: The culture medium was discarded and the cell was washed with phosphate buffered saline(PBS). Per each well, 80 μl each of lysis solution (100 mM potassium phosphate, pH 7.8, 0.2% Triton X-100) was added, for cell lysis. To 20 μl of the cytolytic solution, 100 μl of a luciferase substrate solution (Wako Pure Chemical Co., Ltd.) was added to assay the luminescence with a chemiluminescence meter (Type ML3000; Dynatech Laboratories). Separately, the β-galactosidase activity of the cytolytic solution was assayed with a kit for detecting the β-galactosidase activity (Galacto-Light Plus™ system; TROPIX), and the resulting value was digitized. This was used as the transfection efficiency of introduced gene, to correct the said luciferase activity per each well. Using primers represented by SEQ ID NOS:14 and 15 designed on the basis of the nucleotide sequence of the promoter of p68 RNA helicase gene as previously reported (Rossler, et al., Nucleic Acids Res., Vol. 28, pp. 932-939, 2000) and the human genome DNA sequence (GenBank accession No. AC009994) and additionally using the human genome DNA (Clontech) as template for PCR [using DNA polymerase (LA Taq DNA polymerase; Takara Shuzo Co., Ltd.), and at 98° C. (5 minutes) and subsequently 35 times of a cycle of 96° C. […] After culturing for 48 hours, the luminescence of luciferase was assayed in the same manner as in Example 2. […]
smiles,measurement,setting,value
"CCc1ccc(CCOc2ccc(CC3SC(=O)NC3=O)cc2)nc1 (single isomer, unassigned; (+)) [pioglitazone, (+)-5-[4-[2-(5-ethyl-2-pyridinyl)ethoxy]benzyl]-2,4-thiazolidinedione]",expression level of p68 RNA helicase compared with the culture medium without pioglitazone addition,p68 RNA helicase,about 1.7 fold
same,promoter activity of p68 RNA helicase gene (luciferase activity),[1],activated
